Experimental findings from patent publication US20040267001A1, “Genes encoding baeyer-villiger monooxygenases” (priority 2001, published 2004) are described below.

Common to all, as to assay: chnB monooxygenase activity assay, NADPH oxidation at 340 nm, purified over-expressed enzyme
Format in all cases: biochemical

The subject of assay [1] is Acidovorax sp. CHX chnB monooxygenase. The following applies: 1.25 mM substrate, pH 7.5; ND = No Activity Detected. An excerpt: (§1) Following amplification, the chnB gene fragments were cloned into pTrcHis-TOPO TA vectors with either an N-terminal tail or C-terminal tail, as provided by the vector sequence (N-terminal tail for Brevibacterium sp. HCU, Rhodococcus sp. phi1, Rhodococcus sp. phi2, and Arthrobacter sp. BP2 monooxygenases; C-terminal tail for Acinetobacter sp. SE19 and Acidovorax sp. CHX monooxygenases). These vectors were transformed into E. coli, with transformants grown in Luria-Bertani broth supplemented with ampicillin (100 ug/ml) and riboflavin (0.1 ug/ml) at 30° C. until the absorbance at 600 nm (A600) reached 0.5. When the A600 was reached, the temperature was shifted to 16° C.
(§2) The encoded monooxygenase sequences were expressed upon addition of IPTG to the culture media, 30 min after the temperature shift to 16° C. The cultures were grown further ovemight (14 hrs) and harvested by centrifugation in a cold centrifuge. The cells were treated with lysozyme (100 mg/ml) for 30 min on ice and sonicated. Following sonication, cell extracts were centrifuged and the supernatant was equilibrated with Ni-NTA resin (Qiagen, Valencia, Calif.) for 1 hr at 4° C. Protein bound resin was washed successively with increasing concentrations of imidazole buffer until the protein of interest was released from the resin. The purified protein was concentrated and the buffer exchanged to remove the imidazole. The protein concentration was adjusted to 1 ug/ml.
(§3) Compounds were selected on the basis of previous observations by van der Werf (J. Biochem. 347:693-701 (2000)) and Miyamoto et al. (Biochimica et Biophysica Acta 1251: 115-124 (1995)) and by searches for the ketone substructure.
(§4) All compounds were obtained from Sigma-Aldrich with only two exceptions. Levoglucosenone was obtained from Toronto Research Chemicals, Inc. and dimethyl-2-piperidone was prepared according to U.S. Pat. No. 6,077,955. For enzyme assays all compounds were dissolved to a concentration of 0.1 M in methanol, with the exceptions of norcamphor (dissolved in ethyl acetate), cyclododecanone, cycltridecanone and cyclopentadecanone (dissolved in propanol), and levoglucosenone (dissolved with acetone).
(§5) The monooxygenase activity of each over-expressed enzyme was assayed spectrophotometrically at 340 nm by monitoring the oxidation of NADPH. Assays were performed in individual quartz cuvettes, with a pathlength of 1 cm. […] An Ultrospec 4000 (Pharmacia Biotech, Cambridge, England) was used to read the absorbance of the samples over a two to ten minute time period and the SWIFT (Pharmacia Biotech) program was used to calculate the slope of the reduction in absorbance over time. For the Brevibactedum sp. […] Monooxygenase activity of each over-expressed enzyme is shown in Table 5, with respect to each ketone substrate. The specific activity values listed are given in umol/min/mg. The notation “ND” refers to “No Activity Detected”.

Assay [2] has as its target T1, Acinetobacter sp. SE19 chnB monooxygenase (Acinetobacter sp., UniProt Q9F7E4).
T1 construct: isolated full length BVMO genes from Brevibacterium sp; HCU, Acinetobacter SE19; C-terminal tail provided by the pTrcHis-TOPO vector (C); made in house; host or cells: E. coli
The following applies: 1.25 mM substrate, pH 7.5; ND = No Activity Detected.
Text: as §1, §2, §3, §4, §5

For assay [3], the system named is Arthrobacter sp. BP2 chnB monooxygenase. The following applies: 1.25 mM substrate, pH 7.5; ND = No Activity Detected.
Text: as §1, §2, §3, §4, §5

Assay [4] deals with Brevibacterium sp. HCU chnB1 monooxygenase. The following applies: 1.25 mM substrate, pH 7.5; ND = No Activity Detected.
Text: as §1, §2, §3, §4, §5

Assay [5] relates to Brevibacterium sp. HCU chnB2 monooxygenase. Particulars: 1.25 mM substrate, pH 7.5; rates multiplied by a factor of 3.25 to adjust for decrease in activity due to storage; ND = No Activity Detected.
Text: as §1, §2, §3, §4, §5

Assay [6] relates to Rhodococcus sp. phi1 chnB monooxygenase. The following applies: 1.25 mM substrate, pH 7.5; ND = No Activity Detected.
Text: as §1, §2, §3, §4, §5

Assay [7] concerns Rhodococcus sp. phi2 chnB monooxygenase. The following applies: 1.25 mM substrate, pH 7.5; ND = No Activity Detected.
Text: as §1, §2, §3, §4, §5

Regarding `O=C1CCC(=O)CC1` [1,4-cyclohexanedione], the “Specific Activity of Monooxygenase Enzymes Against Various Ketone Substrates, sp. CHX chnB” value (“Specific Activity … sp. CHX chnB” for short) in assay [1] came out at 0.794 µmol/min/mg. For the same compound, the “Specific Activity of Monooxygenase Enzymes Against Various Ketone Substrates, sp. SE19 chnB” value (“Specific Activity … sp. SE19 chnB” below) in assay [2] came out at 8.346 µmol/min/mg. Further, the “Specific Activity of Monooxygenase Enzymes Against Various Ketone Substrates, sp. BP2 chnB” value (“Specific Activity … sp. BP2 chnB” below) in assay [3] was determined as 3.994 µmol/min/mg. In addition, in assay [4], the “Specific Activity of Monooxygenase Enzymes Against Various Ketone Substrates, sp. HCU chnB1” value (shortened to “Specific Activity … sp. HCU chnB1”) turned out to be 3.405 µmol/min/mg. Also, the “Specific Activity of Monooxygenase Enzymes Against Various Ketone Substrates, sp. HCU chnB2” value (from here on “Specific Activity … sp. HCU chnB2”) in assay [5] was found to be 1.123 µmol/min/mg. The “Specific Activity of Monooxygenase Enzymes Against Various Ketone Substrates, sp. phi1 chnB” value (“Specific Activity … sp. phi1 chnB” for short) in assay [6] was 3.302 µmol/min/mg. For the same compound, in assay [7], the “Specific Activity of Monooxygenase Enzymes Against Various Ketone Substrates, sp. phi2 chnB” value (“Specific Activity … sp. phi2 chnB” for short) is 6.150 µmol/min/mg.
Regarding `CC1CCCCC1=O` (stereo not shown) [2-methyl-cyclohexanone], the “Specific Activity … sp. CHX chnB” value in assay [1] amounted to 0.627 µmol/min/mg. In assay [2], the “Specific Activity … sp. SE19 chnB” value stood at 9.990 µmol/min/mg. Besides, in assay [3], the “Specific Activity … sp. BP2 chnB” value turned out to be 4.205 µmol/min/mg. Further, the “Specific Activity … sp. HCU chnB1” value in assay [4] was determined as 2.714 µmol/min/mg. The “Specific Activity … sp. HCU chnB2” value in assay [5] came out at 1.622 µmol/min/mg. In assay [6], the “Specific Activity … sp. phi1 chnB” value was 4.774 µmol/min/mg. Besides, in assay [7], the “Specific Activity … sp. phi2 chnB” value is 5.952 µmol/min/mg.
Take `CC1CCCC1=O` (stereo not shown) [2-methyl-cyclopentanone]: the “Specific Activity … sp. CHX chnB” value in assay [1] turned out to be 0.627 µmol/min/mg. Besides, the “Specific Activity … sp. SE19 chnB” value in assay [2] came to 8.378 µmol/min/mg. Also, in assay [3], the “Specific Activity … sp. BP2 chnB” value is 3.514 µmol/min/mg. In addition, the “Specific Activity … sp. HCU chnB1” value in assay [4] was found to be 1.395 µmol/min/mg. The “Specific Activity … sp. HCU chnB2” value in assay [5] was 0.874 µmol/min/mg. The “Specific Activity … sp. phi1 chnB” value in assay [6] turned out to be 3.392 µmol/min/mg. Besides, the “Specific Activity … sp. phi2 chnB” value in assay [7] worked out at 6.445 µmol/min/mg.
On to `O=C1CCCCCC1` [Cycloheptanone], for which, in assay [1], the “Specific Activity … sp. CHX chnB” value was determined as 0.608 µmol/min/mg. Also, the “Specific Activity … sp. SE19 chnB” value in assay [2] amounted to 8.422 µmol/min/mg. In addition, in assay [3], the “Specific Activity … sp. BP2 chnB” value is 3.846 µmol/min/mg. In assay [4], the “Specific Activity … sp. HCU chnB1” value stood at 0.646 µmol/min/mg. Also, the “Specific Activity … sp. HCU chnB2” value in assay [5] worked out at 0.374 µmol/min/mg. Moreover, in assay [6], the “Specific Activity … sp. phi1 chnB” value was 3.622 µmol/min/mg. Also, in assay [7], the “Specific Activity … sp. phi2 chnB” value stood at 6.234 µmol/min/mg.
For the compound `O=C1C=CCCC1` [Cyclohex-2-ene-1-one], the “Specific Activity … sp. CHX chnB” value in assay [1] stood at 0.666 µmol/min/mg. In addition, the “Specific Activity … sp. SE19 chnB” value in assay [2] worked out at 5.357 µmol/min/mg. Moreover, the “Specific Activity … sp. BP2 chnB” value in assay [3] worked out at 2.739 µmol/min/mg. Also, in assay [4], the “Specific Activity … sp. HCU chnB1” value was found to be 0.435 µmol/min/mg. Also, in assay [5], the “Specific Activity … sp. HCU chnB2” value is 0.541 µmol/min/mg. In addition, the “Specific Activity … sp. phi1 chnB” value in assay [6] was found to be 2.694 µmol/min/mg. In addition, in assay [7], the “Specific Activity … sp. phi2 chnB” value is 3.091 µmol/min/mg.
`O=C1CCCCC1` [Cyclohexanone]: in assay [1], the “Specific Activity … sp. CHX chnB” value was 0.397 µmol/min/mg. In assay [2], the “Specific Activity … sp. SE19 chnB” value was found to be 6.349 µmol/min/mg. In addition, the “Specific Activity … sp. BP2 chnB” value in assay [3] was determined as 3.565 µmol/min/mg. Further, the “Specific Activity … sp. HCU chnB1” value in assay [4] was found to be 2.765 µmol/min/mg. The “Specific Activity … sp. HCU chnB2” value in assay [5] worked out at 1.726 µmol/min/mg. Besides, the “Specific Activity … sp. phi1 chnB” value in assay [6] turned out to be 3.680 µmol/min/mg. The “Specific Activity … sp. phi2 chnB” value in assay [7] came out at 3.750 µmol/min/mg.
`O=C1CC2CC[C@H]1C2` [Norcamphor]: the “Specific Activity … sp. CHX chnB” value in assay [1] was 0.166 µmol/min/mg. Moreover, the “Specific Activity … sp. SE19 chnB” value in assay [2] turned out to be 4.474 µmol/min/mg. Moreover, the “Specific Activity … sp. BP2 chnB” value in assay [3] stood at 2.842 µmol/min/mg. Also, the “Specific Activity … sp. HCU chnB1” value in assay [4] amounted to 0.410 µmol/min/mg. Besides, the “Specific Activity … sp. HCU chnB2” value in assay [5] is 1.331 µmol/min/mg. Moreover, in assay [6], the “Specific Activity … sp. phi1 chnB” value stood at 1.504 µmol/min/mg. Besides, the “Specific Activity … sp. phi2 chnB” value in assay [7] amounted to 2.816 µmol/min/mg.
Regarding `O=C1Cc2ccccc2N1` [Oxindole], in assay [1], the “Specific Activity … sp. CHX chnB” value is 0.307 µmol/min/mg. The “Specific Activity … sp. SE19 chnB” value in assay [2] was 7.091 µmol/min/mg. Also, the “Specific Activity … sp. BP2 chnB” value in assay [3] was 4.845 µmol/min/mg. Further, the “Specific Activity … sp. HCU chnB1” value in assay [4] is 2.438 µmol/min/mg. For the same compound, the “Specific Activity … sp. HCU chnB2” value in assay [5] worked out at 0.229 µmol/min/mg. The “Specific Activity … sp. phi1 chnB” value in assay [6] is 3.411 µmol/min/mg. Besides, in assay [7], the “Specific Activity … sp. phi2 chnB” value turned out to be 4.858 µmol/min/mg.
On to `CC(=O)/C=C/C1=C(C)CCCC1(C)C` [beta-ionone], for which the “Specific Activity … sp. CHX chnB” value in assay [1] stood at 0.544 µmol/min/mg. Besides, the “Specific Activity … sp. SE19 chnB” value in assay [2] was 3.347 µmol/min/mg. In assay [3], the “Specific Activity … sp. BP2 chnB” value was 1.485 µmol/min/mg. In assay [4], the “Specific Activity … sp. HCU chnB1” value amounted to 0.109 µmol/min/mg. The “Specific Activity … sp. HCU chnB2” value in assay [5] amounted to 0.374 µmol/min/mg. The “Specific Activity … sp. phi1 chnB” value in assay [6] is 2.707 µmol/min/mg. Besides, the “Specific Activity … sp. phi2 chnB” value in assay [7] is 0.544 µmol/min/mg.
dimethy-2-piperidone: the “Specific Activity … sp. CHX chnB” value in assay [1] stood at 0.557 µmol/min/mg. In addition, in assay [2], the “Specific Activity … sp. SE19 chnB” value was determined as 8.384 µmol/min/mg. Further, in assay [3], the “Specific Activity … sp. BP2 chnB” value came to 4.154 µmol/min/mg. Also, the “Specific Activity … sp. HCU chnB1” value in assay [4] worked out at 2.822 µmol/min/mg. Also, the “Specific Activity … sp. HCU chnB2” value in assay [5] worked out at 0.354 µmol/min/mg. Moreover, the “Specific Activity … sp. phi1 chnB” value in assay [6] stood at 3.539 µmol/min/mg. Besides, the “Specific Activity … sp. phi2 chnB” value in assay [7] came out at 6.509 µmol/min/mg.
